{
  "source": "patent US10004687B2",
  "about": "(priority 2005, dated 2018)",
  "key": {"[1]": {"test_system": "ASPC-1 pancreatic carcinoma cells", "test": "MTT proliferation/survival assay, 72 hours incubation", "format": "cell-based", "settings": "Homo sapiens, ASPC1, ASPC-1, MTT assay", "protocol": "(§1) Controls were exposed to 0.1% v/v DMSO. Proliferation and survival of the pancreatic cells were assessed by MTT assay, a standard colorimetric assay used to measure cell survival and proliferation (Mosman, 1983). MTT (3-[4,5-cimethylthiazol-2-yl]-2,5-diphenyl tetrazolium bromide) is cleaved by living cells to yield a dark blue formazan product. The color is quantitated by spectrophotometer and reflects cellular proliferation and survival. […] The control for each assay was exposed to 0.1% v/v DMSO.\n(§2) MTT proliferation/survival assay was performed after 72 hours of incubation.\n(§3) FIGS. 5-10 show graphs of the results of the assays using Bxpc-3, Capan-1, Capan-2, HS766-1 and ASPC-1 cell lines, respectively. […] The MTT assay was performed after pancreatic cells were exposed for 72 hours to each compound at concentrations ranging from 0 to 5 μg/ml."}, "[2]": {"test_system": "Bxpc-3 pancreatic carcinoma cells", "test": "MTT proliferation/survival assay, 72 hours incubation", "format": "cell-based", "settings": "Homo sapiens", "protocol": "as §1, §2, §3"}, "[3]": {"test_system": "Capan-1 pancreatic carcinoma cells", "test": "MTT proliferation/survival assay, 72 hours incubation", "format": "cell-based", "settings": "Homo sapiens", "protocol": "as §1, §2, §3"}, "[4]": {"test_system": "Capan-2 pancreatic carcinoma cells", "test": "MTT proliferation/survival assay, 72 hours incubation", "format": "cell-based", "settings": "Homo sapiens, Capan-2, 72 h, CAPAN-2, MTT assay", "protocol": "as §1, §2, §3"}, "[5]": {"test_system": "HS766-T pancreatic carcinoma cells", "test": "MTT proliferation/survival assay, 72 hours incubation", "format": "cell-based", "settings": "Hs766T", "protocol": "as §1, §2, §3"}, "[6]": {"test_system": "pancreatic Bxpc-3, Capan-1, Capan-2, HS766-T and ASPC-1 cells", "test": "MTT proliferation/survival assay, statements on all five pancreatic lines", "format": "cell-based", "settings": "seventy-two hours of exposure", "protocol": "as §1, §2, §3"}, "[7]": {"test_system": "pancreatic BxPC-3 or HS766-T cells", "test": "Apoptosis assay, Annexin-V/Proopidium iodide staining (FACS analysis)", "format": "cell-based", "settings": "concentrations equal to IC50 or IC90 of liposomal curcumin, 72 hours", "protocol": "Apoptosis assay was performed using either pancreatic BxPC-3 or HS766-T cells. […] After incubation for 72 hours, the cells were assayed using Annexin-V/Proopidium iodide staining (FACS analysis) to determine how much apoptosis had occurred."}, "[8]": {"settings": "animal studies to date; cited from earlier work"}, "[9]": {"settings": "cited from earlier work"}},
  "note": "“And” between values parts separate entries of the source, which are not always exact repeats. Identical values can stand only once. Like-named read-outs stand apart in the source and are kept apart here.",
  "data": [
    {"smiles": "COc1cc(C=CC(=O)CC(=O)C=Cc2ccc(O)c(OC)c2)ccc1O", "note": "[free curcumin, (E,E)-1,7-bis(4-hydroxy-3-methoxyphenyl)-1,6-heptadiene-3,5,-dione]", "values": [
      {"measurement": "IC50", "setting": "[1]", "result": "4 µg/mL and 10.8 µM"},
      {"measurement": "IC90", "setting": "[1]", "result": "10 µg/mL and 27 µM"},
      {"measurement": "IC50", "setting": "[2]; read-out: 50% inhibitory concentration (IC50), BxPC-3 cells, approximate", "result": "~5", "unit": "µM"},
      {"measurement": "IC50", "setting": "[2]; BXPC-3, MTT assay, 72 hours incubation, read-out: IC50", "result": "2 µg/mL and 5.4 µM"},
      {"measurement": "IC90", "setting": "[2]; BXPC-3, MTT assay, 72 hours incubation, read-out: IC90", "result": "5 µg/mL and 13.5 µM"},
      {"measurement": "IC90", "setting": "[2]; BxPC-3 cells, approximate, read-out: 90% inhibitory concentration (IC90)", "result": "~14", "unit": "µM"},
      {"measurement": "IC50", "setting": "[3]; read-out: 50% inhibitory concentration (IC50), Capan-1 cells, approximate", "result": "~5", "unit": "µM"},
      {"measurement": "IC50", "setting": "[3]; CAPAN-1, MTT assay, 72 hours incubation, read-out: IC50", "result": "2 µg/mL and 5.4 µM"},
      {"measurement": "IC90", "setting": "[3]; CAPAN-1, MTT assay, 72 hours incubation, read-out: IC90", "result": "5 µg/mL and 13.5 µM"},
      {"measurement": "IC90", "setting": "[3]; Capan-1 cells, approximate, read-out: 90% inhibitory concentration (IC90)", "result": "~14", "unit": "µM"},
      {"measurement": "IC50", "setting": "[4]", "result": 17, "unit": "µg/mL"},
      {"measurement": "IC90", "setting": "[4]", "result": 35, "unit": "µg/mL"},
      {"measurement": "IC50", "setting": "[5]", "result": "2.6 µg/mL and 7 µM"},
      {"measurement": "IC90", "setting": "[5]", "result": "8 µg/mL and 21.6 µM"},
      {"measurement": "pancreatic cell growth (MTT)", "setting": "[6]", "result": "inhibited pancreatic cell growth of all five lines tested in a concentration-dependent manner"},
      {"measurement": "apoptosis after treatment", "setting": "[7]", "result": "dose-related apoptosis"},
      {"measurement": "LD50", "setting": "[8]", "result": "never reached an LD50"},
      {"measurement": "solubility in ethanol, alkalis, ketones, acetic acid and chloroform", "setting": "[9]", "result": "soluble"},
      {"measurement": "solubility in water", "setting": "[9]; water", "result": "insoluble"}
    ]}
  ]
}
